Source: patent publication US8501792B2, “Treating cancer with desthiazolyl ritonavir” (priority 2008, dated 2013)
pIC50: −log10 of the molar value. Like-named read-outs stand apart in the source and are kept apart here.

What was measured:
[1] = tested on: MDA-MB-231 xenograft; experiment: Murine breast cancer xenograft; type: in vivo, female nude mice (nu-/nu-)
Method: Six-8 weeks old female nude mice (nu^−/nu^−) (Charles River Laboratories International, Inc., MA) were injected into a right mammary fat pad with 1×10^6 log-phase MDA-MB-231. Mice were monitored bi-weekly for weight and tumor growth. When tumors reached a volume of approximately 30-40 mm^3 (calculated according to the formula: volume (mm^3)=(length)(width)^2/2), mice were randomized into three groups (each group n=10). One group of mice was injected daily i.p. with ritonavir (20 mg/Kg in 100 μl of ethanol-Tween 80), the second with M1 (20 mg/Kg in 100 μl of ethanol-Tween 80), and the third with vehicle only (100 μl of ethanol-Tween 80). […] Mice were weighted and their tumors were measured twice a week for the entire duration of the treatment (42 days).
One hour after the last drug/vehicle injection plasma, tumors, lungs, liver, tongue, and skin were collected from each mouse. Plasma was stored at −80° C.; half of the tissues were treated to prepare paraffin blocks, and half were frozen in liquid nitrogen and stored at −80° C.

[2] = tested on: MDA-MB-231; experiment: Western blot protein depletion, MDA-MB-231 (Example 4); type: cell-based
Method: (§1) Breast cancer cell lines MDA-MB-231, T47D and SKBR3 were used to study depletion of Hsp90 by M1 and ritonavir. Cells were incubated for 48 hours with 1) ritonavir (R) at its IC50 (20 μM for T47D and 40 μM for MDA-MB-231); 2) M1 at ritonavir's IC50; or DMSO (control). Cell extracts were made according to the method of Srirangam et al., Clin Cancer Res. 2006 Mar. 15; 12(6):1883-96. Briefly, nearly confluent cell monolayers were treated with drug or vehicle (DMSO) for 24 or 48 h. Cells were washed with PBS on ice and scraped in a RIPA buffer containing protease inhibitors including MG-132 and phosphatase inhibitors. The cell lysate protein content was determined by μBCA and equal amounts of protein were loaded per lane. Gel electrophoresis by SDS PAGE was performed with equal protein loading per lane (usually 30 μg) and the separated proteins were transferred to 0.45 μm nitrocellulose filters. The transfer was verified by Ponceau stain of the nitrocellulose filters. The filters were probed by chemiluminescent blotting and then exposed to X-ray film. The signal from the protein of interest was normalized to the GAPDH signal. Student's t-test was used to determine the significance of differences.

[3] = tested on: Hsp90; experiment: 70 kDa Hsp90 fragment after treatment; type: cell-based; conditions: data not shown
[4] = tested on: MCF7-her2 line; experiment: MTT proliferation assay, MCF7-her2 line; type: cell-based; conditions: MCF7-her2 line over-expressing her2; MTT after 48 h
[5] = tested on: MCF7 breast cancer cell line; experiment: Annexin V-FITC/PI apoptosis flow cytometry, MCF7; type: cell-based; conditions: for early apoptotic cells: preliminary flow cytometry apoptosis studies; for UR % Late Apoptosis / LR % Early Apoptosis: 48 hours; for fraction of apoptotic cells (early, lower right quadrant): at the ritonavir IC50 (30 μM), FIG. 2
Method: Induction of apoptosis can be determined using the Annexin V-FITC/PI apoptosis detection kit (Oncagene, Boston, Mass.). For example, after plating at 5×10^5 in a 100-mm plate, cancer cells can be grown for 48 hours in complete medium in presence of a drug, including a compound or formula 1, and a control, such as vehicle (DMSO). The culture and drug exposure conditions for the apoptosis assays can be done across a range of 5 to 60 μmol/L drug. Cells can be harvested by trypsin treatment, washed with complete medium to neutralize the trypsin, and stained with PI and Annexin V-FITC. The events can then be analyzed using FACScan analysis and CellQuest software (Becton Dickinson). See Example 2.
(§2) Induction of apoptosis was studied in a MCF7 breast cancer cell line. Apoptotic cells were detected using an Annexin V-FITC/PI apoptosis detection kit (Oncagene, Boston, Mass.). After plating at 5×10^5 in a 100-mm plate, the cells were grown for 48 hours in complete medium in presence of M1, ritonavir, or vehicle (DMSO). The culture and drug exposure conditions for the apoptosis assays were done across a range of 5 to 60 μmol/L M1 and ritonavir. Cells were harvested by trypsin treatment, washed with complete medium to neutralize the trypsin, and stained with PI and Annexin V-FITC. A total of 1×10^4 events were analyzed per assay by FACScan analysis using CellQuest software (Becton Dickinson). Replicate assays were done to confirm the results.

[6] = tested on: SKBR3 (ER-/Her2+); experiment: Annexin V-FITC/PI apoptosis flow cytometry, SKBR3; type: cell-based
Method: as §2
(§3) A similar study was performed using T47D (ER+), MDA-MB-231 (triple negative) and SKBR3 (ER−/Her2+) cell lines were performed as above.

[7] = tested on: MDA-MB-231 (triple negative); experiment: MTT proliferation assay, MDA-MB-231; type: cell-based; conditions: Homo sapiens
Method: (§4) Cells (n=2000/well) were seeded in 96 well plates with drug or vehicle (DMSO) on D1 and after 48 h the cell number was determined by MTT assay.

[8] = tested on: T47D (ER+); experiment: Annexin V-FITC/PI apoptosis flow cytometry, T47D; type: cell-based
Method: as §2, §3

[9] = tested on: SKBR3 (ER-/Her2+); experiment: MTT proliferation assay, SKBR3; type: cell-based; conditions: Homo sapiens, SK-BR-3, Example 6, MTT after 48 h
Method: M1 inhibition of proliferation of MCF7 (ER+), T47D (ER+), MDA-MB-231 (triple negative), SKBR3 (ER−/Her2+), and the non-transformed mammary line MCF10A were studied. Cells (n=2000/well) were seeded in 96 well plates with drug or vehicle (DMSO) on D1 and after 48 h the cell number was determined by MTT assay.

[10] = tested on: SKBR3; experiment: Western blot protein depletion, SKBR3 (Example 4); type: cell-based
Method: as §1

[11] = tested on: MCF7 (ER+); experiment: MTT proliferation assay, MCF7; type: cell-based; conditions: Homo sapiens
Method: as §4

[12] = tested on: HIV; conditions: MT-4 cell based assay; Denissen et al. 1997; cited from earlier work
[13] = Table 1, below the IC50 for both drugs, 45 μM
[14] = Table 3, at the ritonavir IC50, 30 μM
[15] = Table 4, above the IC50 for both drugs, 45 μM

Structure (SMILES)	G1/S regulatory protein Cyclin D1 ([2]; P<0.05)	pIC50 [4]	early apoptotic cells ([5]; 45 μM) [%]	UR % Late Apoptosis ([5]; Table 1, 45 μM) [%]	LR % Early Apoptosis [5, 13] [%]	LR % Early Apoptosis ([5]; Table 2, at the M1 IC50, 15 μM) [%]	UR % Late Apoptosis ([5]; Table 2, at the M1 IC50, 15 μM) [%]	LR % Early Apoptosis [5, 14] [%]	UR % Late Apoptosis [5, 14] [%]	LR % Early Apoptosis [5, 15] [%]	UR % Late Apoptosis [5, 15] [%]	fraction of apoptotic cells (early, lower right quadrant) [5] [%]	fraction of apoptotic cells [6] [%]	fraction of apoptotic cells [8] [%]	pIC50 [9]	G1/S regulatory protein Cyclin D1 [10]	reducing Hsp90 levels [10]	other results
CC(C)c1nc(CN(C)C(=O)N[C@H](C(=O)N[C@@H](Cc2ccccc2)C[C@H](O)[C@H](Cc2ccccc2)NC(=O)OCc2cncs2)C(C)C)cs1 [ritonavir]	reduced	4.60	14	23.0	14.12	13.83	11.16	15.11	7.95	17.10	7.30	17	11	13	4.48	only M1 reduced	neither drug reduced	effect on MDA-MB-231 xenograft ([1]; at its MTD (40 mg/Kg)): inhibits; effect on MDA-MB-231 xenograft ([1]; half its MTD (20 mg/Kg)): ineffective; 70 kDa Hsp90 fragment, less abundant than with M1 [3]: 3 -fold; pIC50 ([7]; as quoted in Example 4, read-out: IC50): 4.40; pIC50 ([11]; MCF7, 48 h, read-out: IC50, proliferation): 4.55; pIC50 ([11]; MCF7, as quoted in Example 2, read-out: IC50): 4.52
CC(C)c1nc(CN(C)C(=O)NC(C(=O)NC(Cc2ccccc2)CC(O)C(N)Cc2ccccc2)C(C)C)cs1 (centres unmarked) [M1, desthiazolyl ritonavir]	reduced	4.60	28	34.74	27.46	9.42	10.73	39.74	20.00	31.95	21.31	32	78	20	4.92	reduced	neither drug reduced	tumor growth compared to mice treated with only the vehicle ([1]; 20 mg/Kg daily i.p., 42 days, FIG. 5A): delayed tumor growth; tumor growth compared to ritonavir ([1]; 20 mg/Kg daily i.p., 42 days, FIG. 5B): statistically significant delay in tumor growth; reduction of the average tumor size ([1]; at MTD (20 mg/Kg), 42 days of follow-up, P<0.05): 2 -fold; reducing Hsp90 levels ([2]; 48 hours, at ritonavir's IC50 (40 μM)): more potent than ritonavir; reducing total Akt, phospho-Akt, GSK3beta, c-src, and survivin ([2]; versus ritonavir, P<0.05): more potent; major 70 kDa Hsp90 fragment [3]: observed; inhibition of HIV replication [12]: does not inhibit HIV replication; pIC50 ([7]; Example 6, MTT after 48 h, read-out: IC50, proliferation): 4.66; reducing total Akt, phospho-Akt, GSK3beta, c-src, and survivin ([10]; versus ritonavir, P<0.05): more potent; pIC50 ([11]; MCF7, Example 6, MTT after 48 h, read-out: IC50, proliferation): 4.82
